IC50 data for 5 molecules are collected here from BindingDB's records for doi:10.1016/s0960-894x(03)00129-x (Wyeth Research, 2003).

pIC50: −log10 of the molar value.

This experiment deals with T1, Progesterone receptor (Rattus norvegicus, UniProt Q63449).
T1 sequence (Q63449 whole entry): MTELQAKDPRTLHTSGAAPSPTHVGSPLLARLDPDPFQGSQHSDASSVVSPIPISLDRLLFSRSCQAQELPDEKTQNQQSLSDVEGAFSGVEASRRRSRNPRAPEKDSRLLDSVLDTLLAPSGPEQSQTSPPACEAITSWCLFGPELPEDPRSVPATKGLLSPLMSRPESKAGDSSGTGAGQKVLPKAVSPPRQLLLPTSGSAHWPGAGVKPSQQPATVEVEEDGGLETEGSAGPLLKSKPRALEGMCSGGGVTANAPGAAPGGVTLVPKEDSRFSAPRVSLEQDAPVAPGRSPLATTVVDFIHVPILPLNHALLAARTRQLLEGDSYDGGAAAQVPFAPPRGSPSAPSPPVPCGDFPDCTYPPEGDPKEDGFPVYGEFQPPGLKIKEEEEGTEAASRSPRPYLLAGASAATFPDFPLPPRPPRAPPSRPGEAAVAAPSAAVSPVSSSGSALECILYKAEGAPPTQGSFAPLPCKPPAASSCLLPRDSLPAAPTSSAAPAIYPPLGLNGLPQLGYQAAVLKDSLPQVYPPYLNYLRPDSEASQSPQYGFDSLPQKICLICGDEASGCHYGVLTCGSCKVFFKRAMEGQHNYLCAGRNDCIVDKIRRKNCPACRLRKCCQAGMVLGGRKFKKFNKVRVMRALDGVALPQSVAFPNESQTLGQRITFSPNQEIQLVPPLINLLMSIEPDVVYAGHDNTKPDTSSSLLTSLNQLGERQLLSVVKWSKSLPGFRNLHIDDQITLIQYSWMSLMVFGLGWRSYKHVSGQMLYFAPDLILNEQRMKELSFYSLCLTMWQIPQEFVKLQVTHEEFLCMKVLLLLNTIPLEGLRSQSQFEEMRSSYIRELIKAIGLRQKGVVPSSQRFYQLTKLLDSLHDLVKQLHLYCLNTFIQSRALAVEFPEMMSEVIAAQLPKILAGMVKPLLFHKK
Description: Inhibitory progestational activity on oral administration in uterine C3 model.

`S=C1Nc2ccc(-c3cccc(Cl)c3)cc2C12CCCCC2`: the pIC50 is 5.95. The result for `CC(=O)O[C@]1(C(C)=O)CC[C@H]2[C@@H]3C[C@H](C)C4=CC(=O)CC[C@]4(C)[C@H]3CC[C@@]21C` [17-Acetoxy-6alpha-methylprogesterone] reads 7.17. As for `N#Cc1ccc(-c2ccc3c(c2)C2(CCCCC2)C(=S)N3)s1`, the figure is 7.03; as for `N#Cc1cc(F)cc(-c2ccc3c(c2)C2(CCCCC2)C(S)=N3)c1` [3-fluoro-5-(2'-thioxo-1',2'-dihydrospiro[cyclohexane-1,3'-indol]-5'-yl)benzonitrile], 8.13; as for `N#Cc1cccc(-c2ccc3c(c2)C2(CCCCC2)C(=S)N3)c1`, 6.03.

As usually defined, the pIC50 is the IC50 on a negative log10 scale, so that one unit is a factor of ten. Read a high pIC50 as a small IC50.
